Results published in paper PMC4844702, “Selective inhibition of the kinase DYRK1A by targeting its folding process” (Nature Communications, 2016).

Assays:
Test in all cases: Kinase panel (Carna)
Type in all cases: biochemical
JAK3 = target: T1, JAK3 (Homo sapiens, UniProt P52333)
T1 construct: purchased Carna Biosciences
Excerpt: (§1) Detailed information on the assay conditions is available on the website of Carna Biosciences (http://www.carnabio.com).

TNIK = target: T2, TNIK (Homo sapiens, UniProt Q9UKE5)
T2 construct: purchased Carna Biosciences
Excerpt: as §1

CaMK1δ = target: T3, CaMK1δ (Homo sapiens, UniProt Q8IU85)
T3 construct: purchased Carna Biosciences
Excerpt: as §1

IGF1R = target: T4, IGF1R (Homo sapiens, UniProt P08069)
T4 construct: purchased Carna Biosciences
T4 sequence (P08069 31-1367): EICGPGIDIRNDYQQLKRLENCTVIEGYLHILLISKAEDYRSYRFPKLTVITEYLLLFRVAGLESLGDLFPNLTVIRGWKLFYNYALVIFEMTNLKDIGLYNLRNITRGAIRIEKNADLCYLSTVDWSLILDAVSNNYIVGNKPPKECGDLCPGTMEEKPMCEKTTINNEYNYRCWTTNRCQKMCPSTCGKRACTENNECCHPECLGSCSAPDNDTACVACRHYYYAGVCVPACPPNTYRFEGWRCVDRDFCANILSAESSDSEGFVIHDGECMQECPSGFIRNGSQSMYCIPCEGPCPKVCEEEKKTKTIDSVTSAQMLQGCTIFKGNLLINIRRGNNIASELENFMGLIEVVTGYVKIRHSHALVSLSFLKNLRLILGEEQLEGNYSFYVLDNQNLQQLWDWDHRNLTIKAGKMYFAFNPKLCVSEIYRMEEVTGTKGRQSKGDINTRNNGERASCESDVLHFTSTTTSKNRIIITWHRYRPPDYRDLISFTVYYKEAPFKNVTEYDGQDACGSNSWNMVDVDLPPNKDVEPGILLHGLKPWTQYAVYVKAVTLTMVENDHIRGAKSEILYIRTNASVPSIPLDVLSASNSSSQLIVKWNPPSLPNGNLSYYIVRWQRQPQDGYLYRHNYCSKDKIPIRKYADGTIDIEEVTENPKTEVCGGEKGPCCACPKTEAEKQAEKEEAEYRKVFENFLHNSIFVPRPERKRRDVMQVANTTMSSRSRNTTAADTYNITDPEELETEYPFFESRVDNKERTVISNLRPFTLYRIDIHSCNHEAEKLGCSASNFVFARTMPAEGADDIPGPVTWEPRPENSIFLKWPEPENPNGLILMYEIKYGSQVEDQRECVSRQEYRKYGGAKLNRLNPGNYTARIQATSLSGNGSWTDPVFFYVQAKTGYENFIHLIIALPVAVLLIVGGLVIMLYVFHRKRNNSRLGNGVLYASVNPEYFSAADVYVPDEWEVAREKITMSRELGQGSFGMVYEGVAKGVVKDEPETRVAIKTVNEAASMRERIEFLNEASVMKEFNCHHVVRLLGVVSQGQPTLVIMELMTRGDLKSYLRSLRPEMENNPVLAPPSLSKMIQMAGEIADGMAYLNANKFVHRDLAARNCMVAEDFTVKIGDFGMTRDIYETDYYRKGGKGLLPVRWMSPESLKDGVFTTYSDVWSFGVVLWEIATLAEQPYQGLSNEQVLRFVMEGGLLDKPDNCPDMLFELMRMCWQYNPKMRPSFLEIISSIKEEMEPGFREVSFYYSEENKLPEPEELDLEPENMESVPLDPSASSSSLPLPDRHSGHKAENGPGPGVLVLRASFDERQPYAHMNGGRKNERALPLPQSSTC
Excerpt: as §1

AKT2 = target: T5, AKT2 (Homo sapiens, UniProt P31751)
T5 construct: purchased Carna Biosciences
Excerpt: as §1

PRKX = target: T6, PRKX (Homo sapiens, UniProt P51817)
T6 construct: purchased Carna Biosciences

DDR1 = target: T7, DDR1 (Homo sapiens, UniProt Q08345)
T7 construct: purchased Carna Biosciences

HIPK1 = target: T8, HIPK1 (Homo sapiens, UniProt Q86Z02)
T8 construct: purchased Carna Biosciences
Excerpt: as §1

TIE2 = target: T9, TIE2 (Homo sapiens, UniProt Q02763)
T9 construct: purchased Carna Biosciences
Excerpt: as §1

PKCε = target: T10, PKCε (Homo sapiens, UniProt Q02156)
T10 construct: purchased Carna Biosciences
T10 sequence (Q02156 whole entry): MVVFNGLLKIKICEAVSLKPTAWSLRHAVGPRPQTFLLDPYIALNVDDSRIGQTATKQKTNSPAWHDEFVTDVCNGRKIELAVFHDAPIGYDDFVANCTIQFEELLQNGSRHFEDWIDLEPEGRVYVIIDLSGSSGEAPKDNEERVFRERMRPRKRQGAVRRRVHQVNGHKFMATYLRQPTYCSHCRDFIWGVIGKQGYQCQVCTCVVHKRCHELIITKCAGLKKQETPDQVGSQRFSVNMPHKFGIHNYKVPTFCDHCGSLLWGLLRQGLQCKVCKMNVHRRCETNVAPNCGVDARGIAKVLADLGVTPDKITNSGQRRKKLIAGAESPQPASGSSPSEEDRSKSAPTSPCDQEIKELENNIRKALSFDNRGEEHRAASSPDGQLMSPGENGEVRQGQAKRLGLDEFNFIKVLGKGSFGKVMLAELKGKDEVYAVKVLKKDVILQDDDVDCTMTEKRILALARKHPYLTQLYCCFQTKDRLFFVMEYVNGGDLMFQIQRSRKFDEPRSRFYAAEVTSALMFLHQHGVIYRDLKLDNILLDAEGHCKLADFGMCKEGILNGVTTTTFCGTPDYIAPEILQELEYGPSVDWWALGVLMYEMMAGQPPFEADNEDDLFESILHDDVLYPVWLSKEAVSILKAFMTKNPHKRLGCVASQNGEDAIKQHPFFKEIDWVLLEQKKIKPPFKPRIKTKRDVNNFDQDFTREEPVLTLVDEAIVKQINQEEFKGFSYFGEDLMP
Excerpt: as §1

MAP3K3_Cascade = target: T11, MAP3K3_Cascade (Homo sapiens, UniProt Q99759)
T11 construct: purchased Carna Biosciences
Excerpt: as §1

AXL = target: T12, AXL (Homo sapiens, UniProt P30530)
T12 construct: purchased Carna Biosciences
Excerpt: as §1

CK1α = target: T13, CK1α (Homo sapiens, UniProt P48729)
T13 construct: purchased Carna Biosciences

CDK6/CycD3 = target: T14, CDK6/CycD3 (Homo sapiens, UniProt Q00534)
T14 construct: purchased Carna Biosciences
Excerpt: as §1

PAK5 = target: T15, PAK5 (Homo sapiens, UniProt Q9P286)
T15 construct: purchased Carna Biosciences
Excerpt: as §1

MSK1 = target: T16, MSK1 (Homo sapiens, UniProt O75582)
T16 construct: purchased Carna Biosciences
Excerpt: as §1

KDR = target: T17, KDR (Homo sapiens, UniProt P35968)
T17 construct: purchased Carna Biosciences
Excerpt: as §1

FLT4 = target: T18, FLT4 (Homo sapiens, UniProt P35916)
T18 construct: purchased Carna Biosciences
Excerpt: as §1

SRM = target: T19, SRM (Homo sapiens, UniProt Q9H3Y6)
T19 construct: purchased Carna Biosciences
T19 sequence (Q9H3Y6 whole entry): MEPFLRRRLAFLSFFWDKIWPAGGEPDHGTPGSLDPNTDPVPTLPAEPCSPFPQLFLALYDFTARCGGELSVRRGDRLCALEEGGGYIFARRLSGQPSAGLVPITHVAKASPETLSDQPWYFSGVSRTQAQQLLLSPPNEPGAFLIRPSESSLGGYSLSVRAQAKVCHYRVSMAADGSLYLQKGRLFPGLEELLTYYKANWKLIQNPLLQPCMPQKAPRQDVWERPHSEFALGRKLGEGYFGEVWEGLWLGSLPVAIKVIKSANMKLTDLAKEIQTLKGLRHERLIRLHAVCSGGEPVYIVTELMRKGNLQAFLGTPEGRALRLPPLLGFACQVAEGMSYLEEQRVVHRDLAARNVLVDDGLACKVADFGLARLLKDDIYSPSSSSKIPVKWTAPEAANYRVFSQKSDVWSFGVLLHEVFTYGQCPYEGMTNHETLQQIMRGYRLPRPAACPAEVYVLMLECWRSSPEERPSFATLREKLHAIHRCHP
Excerpt: as §1

MAP3K5_Cascade = target: T20, MAP3K5_Cascade (Homo sapiens, UniProt Q99683)
T20 construct: purchased Carna Biosciences
Excerpt: as §1

MST2 = target: T21, MST2 (Homo sapiens, UniProt Q13188)
T21 construct: purchased Carna Biosciences
T21 sequence (Q13188 whole entry): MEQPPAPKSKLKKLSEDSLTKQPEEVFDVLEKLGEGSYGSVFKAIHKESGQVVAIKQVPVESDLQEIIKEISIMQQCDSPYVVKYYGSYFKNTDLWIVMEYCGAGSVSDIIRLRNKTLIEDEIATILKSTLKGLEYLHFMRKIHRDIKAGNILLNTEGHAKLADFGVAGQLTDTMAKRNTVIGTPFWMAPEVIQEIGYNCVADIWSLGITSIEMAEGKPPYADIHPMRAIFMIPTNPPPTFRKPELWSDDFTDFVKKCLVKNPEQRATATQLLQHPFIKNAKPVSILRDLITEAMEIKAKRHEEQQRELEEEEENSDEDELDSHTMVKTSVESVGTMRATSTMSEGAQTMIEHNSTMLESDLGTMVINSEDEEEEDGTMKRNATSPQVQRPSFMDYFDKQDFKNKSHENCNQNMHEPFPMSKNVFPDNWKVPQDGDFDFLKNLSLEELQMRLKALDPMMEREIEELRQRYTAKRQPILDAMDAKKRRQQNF
Excerpt: as §1

FGFR2 = target: T22, FGFR2 (Homo sapiens, UniProt P21802)
T22 construct: purchased Carna Biosciences

MST1 = target: T23, MST1 (Homo sapiens, UniProt Q13043)
T23 construct: purchased Carna Biosciences
Excerpt: as §1

MNK2 = target: T24, MNK2 (Homo sapiens, UniProt Q9HBH9)
T24 construct: purchased Carna Biosciences

PDGFRβ = target: T25, PDGFRβ (Homo sapiens, UniProt P09619)
T25 construct: purchased Carna Biosciences
Excerpt: as §1

BRK = target: T26, BRK (Homo sapiens, UniProt Q13882)
T26 construct: purchased Carna Biosciences
Excerpt: as §1

RON = target: T27, RON (Homo sapiens, UniProt Q04912)
T27 construct: purchased Carna Biosciences
Excerpt: as §1

MAP2K4_Cascade = target: T28, MAP2K4_Cascade (Homo sapiens, UniProt P45985)
T28 construct: purchased Carna Biosciences

MAP2K7_Cascade = target: T29, MAP2K7_Cascade (Homo sapiens, UniProt O14733)
T29 construct: purchased Carna Biosciences
Excerpt: as §1

EGFR = target: T30, EGFR (Homo sapiens, UniProt P00533)
T30 construct: purchased Carna Biosciences

CaMK2γ = target: T31, CaMK2γ (Homo sapiens, UniProt Q13555)
T31 construct: purchased Carna Biosciences

SRPK1 = target: T32, SRPK1 (Homo sapiens, UniProt Q96SB4)
T32 construct: purchased Carna Biosciences
Excerpt: as §1

JNK3 = target: T33, JNK3 (Homo sapiens, UniProt P53779)
T33 construct: purchased Carna Biosciences

CDC7/ASK = target: T34, CDC7/ASK (Homo sapiens, UniProt O00311)
T34 construct: purchased Carna Biosciences
T34 sequence (O00311 whole entry): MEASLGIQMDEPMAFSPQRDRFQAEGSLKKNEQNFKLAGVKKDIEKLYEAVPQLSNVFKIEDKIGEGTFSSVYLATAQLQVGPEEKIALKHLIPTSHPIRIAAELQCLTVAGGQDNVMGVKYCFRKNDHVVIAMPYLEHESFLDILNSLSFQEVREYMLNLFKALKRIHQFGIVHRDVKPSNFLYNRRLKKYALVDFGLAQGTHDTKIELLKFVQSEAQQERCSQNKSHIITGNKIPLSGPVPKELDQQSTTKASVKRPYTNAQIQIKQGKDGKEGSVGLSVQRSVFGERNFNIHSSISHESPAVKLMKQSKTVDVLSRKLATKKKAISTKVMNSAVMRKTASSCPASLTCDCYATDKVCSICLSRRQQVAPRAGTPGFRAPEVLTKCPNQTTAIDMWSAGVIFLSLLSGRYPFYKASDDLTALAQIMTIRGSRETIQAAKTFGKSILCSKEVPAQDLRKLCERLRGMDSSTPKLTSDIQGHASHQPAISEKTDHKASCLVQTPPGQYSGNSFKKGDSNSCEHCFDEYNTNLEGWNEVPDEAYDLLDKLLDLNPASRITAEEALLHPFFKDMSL
T34 sequence (Q9UBU7 whole entry partner): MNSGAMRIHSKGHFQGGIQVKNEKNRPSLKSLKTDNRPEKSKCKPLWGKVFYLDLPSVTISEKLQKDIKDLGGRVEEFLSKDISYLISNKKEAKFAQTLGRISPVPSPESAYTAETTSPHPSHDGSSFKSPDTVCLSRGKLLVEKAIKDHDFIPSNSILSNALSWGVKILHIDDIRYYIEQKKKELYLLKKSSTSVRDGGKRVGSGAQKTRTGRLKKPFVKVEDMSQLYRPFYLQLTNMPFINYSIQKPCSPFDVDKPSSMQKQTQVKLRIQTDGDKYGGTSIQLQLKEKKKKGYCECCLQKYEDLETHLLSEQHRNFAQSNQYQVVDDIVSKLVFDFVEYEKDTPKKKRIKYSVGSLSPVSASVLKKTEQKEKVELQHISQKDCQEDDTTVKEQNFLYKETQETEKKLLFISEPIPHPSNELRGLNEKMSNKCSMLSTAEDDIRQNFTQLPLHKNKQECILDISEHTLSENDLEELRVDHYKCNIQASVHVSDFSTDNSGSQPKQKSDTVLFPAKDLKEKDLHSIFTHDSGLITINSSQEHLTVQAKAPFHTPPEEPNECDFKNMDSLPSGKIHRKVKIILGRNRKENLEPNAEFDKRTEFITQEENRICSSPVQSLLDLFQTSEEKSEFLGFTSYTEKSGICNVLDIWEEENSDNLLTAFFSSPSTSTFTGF
Excerpt: as §1

p38δ = target: T35, p38δ (Homo sapiens, UniProt O15264)
T35 construct: purchased Carna Biosciences
Excerpt: as §1

DCAMKL2 = target: T36, DCAMKL2 (Homo sapiens, UniProt Q8N568)
T36 construct: purchased Carna Biosciences
T36 sequence (Q8N568 whole entry): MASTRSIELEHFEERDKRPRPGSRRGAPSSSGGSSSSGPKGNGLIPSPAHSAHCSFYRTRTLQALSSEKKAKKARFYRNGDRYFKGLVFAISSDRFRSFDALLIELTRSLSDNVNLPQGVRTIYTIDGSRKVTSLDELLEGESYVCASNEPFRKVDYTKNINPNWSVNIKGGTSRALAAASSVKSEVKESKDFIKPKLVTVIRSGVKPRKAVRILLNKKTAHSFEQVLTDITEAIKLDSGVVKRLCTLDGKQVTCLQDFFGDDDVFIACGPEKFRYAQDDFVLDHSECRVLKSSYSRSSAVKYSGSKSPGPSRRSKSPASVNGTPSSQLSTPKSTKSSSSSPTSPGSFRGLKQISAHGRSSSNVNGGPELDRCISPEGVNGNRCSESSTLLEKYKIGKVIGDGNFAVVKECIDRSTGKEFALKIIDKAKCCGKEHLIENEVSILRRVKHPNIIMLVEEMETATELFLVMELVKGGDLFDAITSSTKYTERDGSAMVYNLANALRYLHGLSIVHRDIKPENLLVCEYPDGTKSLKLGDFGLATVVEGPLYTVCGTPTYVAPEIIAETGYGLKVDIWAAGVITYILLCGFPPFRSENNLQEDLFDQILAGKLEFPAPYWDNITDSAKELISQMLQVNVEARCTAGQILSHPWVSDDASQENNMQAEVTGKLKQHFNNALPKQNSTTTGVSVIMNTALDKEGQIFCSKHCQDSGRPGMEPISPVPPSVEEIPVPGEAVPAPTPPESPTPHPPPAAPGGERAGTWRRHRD
Excerpt: as §1

PKACγ = target: T37, PKACγ (Homo sapiens, UniProt P22612)
T37 construct: purchased Carna Biosciences

MAP2K5_Cascade = target: T38, MAP2K5_Cascade (Homo sapiens, UniProt Q13163)
T38 construct: purchased Carna Biosciences

SRC = target: T39, SRC (Homo sapiens, UniProt P12931)
T39 construct: purchased Carna Biosciences
Excerpt: as §1

FRK = target: T40, FRK (Homo sapiens, UniProt P42685)
T40 construct: purchased Carna Biosciences
Excerpt: as §1

CDK2/CycA2 = target: T41, CDK2/CycA2 (Homo sapiens, UniProt P24941)
T41 construct: purchased Carna Biosciences
Excerpt: as §1

TSSK3 = target: T42, TSSK3 (Homo sapiens, UniProt Q96PN8)
T42 construct: purchased Carna Biosciences
Excerpt: as §1

MAP2K3_Cascade = target: T43, MAP2K3_Cascade (Homo sapiens, UniProt P46734)
T43 construct: purchased Carna Biosciences

CaMK2β = target: T44, CaMK2β (Homo sapiens, UniProt Q13554)
T44 construct: purchased Carna Biosciences

## COc1ccc(/C=C2\SC(=S)NC2=O)cc1C#C[Si](C)(C)C [FINDY]
JAK3
  inhibition at 10 µM: 8.2%
TNIK
  inhibition at 10 µM: 10.7%
CaMK1δ
  inhibition at 10 µM: 7.2%
IGF1R
  inhibition at 10 µM: 2.4%
AKT2
  inhibition at 10 µM: 23.5%
PRKX
  inhibition at 10 µM: 3%
DDR1
  inhibition at 10 µM: -3.2%
HIPK1
  inhibition at 10 µM: 11.8%
TIE2
  inhibition at 10 µM: 55.7%
PKCε
  inhibition at 10 µM: -6.6%
MAP3K3_Cascade
  inhibition at 10 µM: 3.3%
AXL
  inhibition at 10 µM: 6.7%
CK1α
  inhibition at 10 µM: 6.1%
CDK6/CycD3
  inhibition at 10 µM: 3.2%
PAK5
  inhibition at 10 µM: -7%
MSK1
  inhibition at 10 µM: 3.8%
KDR
  inhibition at 10 µM: 1.6%
FLT4
  inhibition at 10 µM: 9.8%
SRM
  inhibition at 10 µM: 32.9%
MAP3K5_Cascade
  inhibition at 10 µM: 32.1%
MST2
  inhibition at 10 µM: -5.7%
FGFR2
  inhibition at 10 µM: 19.7%
MST1
  inhibition at 10 µM: -5.2%
MNK2
  inhibition at 10 µM: 8.3%
PDGFRβ
  inhibition at 10 µM: 8.2%
BRK
  inhibition at 10 µM: 3%
RON
  inhibition at 10 µM: 9.2%
MAP2K4_Cascade
  inhibition at 10 µM: 6.4%
MAP2K7_Cascade
  inhibition at 10 µM: 14.4%
EGFR
  inhibition at 10 µM: -5.1%
CaMK2γ
  inhibition at 10 µM: -4.6%
SRPK1
  inhibition at 10 µM: 7.5%
JNK3
  inhibition at 10 µM: 4.5%
CDC7/ASK
  inhibition at 10 µM: 14.1%
p38δ
  inhibition at 10 µM: 11.9%
DCAMKL2
  inhibition at 10 µM: -3.8%
PKACγ
  inhibition at 10 µM: 17.8%
MAP2K5_Cascade
  inhibition at 10 µM: -0.1%
SRC
  inhibition at 10 µM: 5.6%
FRK
  inhibition at 10 µM: 8.4%
CDK2/CycA2
  inhibition at 10 µM: 31.3%
TSSK3
  inhibition at 10 µM: 20.3%
MAP2K3_Cascade
  inhibition at 10 µM: 26%
CaMK2β
  inhibition at 10 µM: -3.3%
